Data published in US20230189864A1, “NON-THERAPEUTIC METHODS FOR MAINTAINING A HEALTHY BODY WEIGHT OR LOSING BODY WEIGHT” (FrieslandCampina Nederland B.V., priority 2019, published 2023).

Experiments:
[1] = overweight men, cited from earlier work
[2] = tested on: pooled fecal microbiota from healthy lean subjects; experiment: TIM-2 in vitro fermentation model, SCFA analysis; assay type: cell-based, human
Source text: The in vitro fermentation studies were done using the TIM-2 model. This is a validated, dynamic, computer-controlled model that simulates the human colon, mimicking body temperature, lumen pH, absorption of water and microbial metabolites through a semipermeable membrane inside the model, mixing and transporting the intestinal contents with peristaltic movements, using an anaerobic microbiota from human origin, it corresponds basically to the model as described in Minekus, M., et al. Appl. Microbiol. Biotechnol. 1999 53, 108 --- 114. doi: 10.1007/ s002530051622 and Kortman et al., Frontiers in Microbiology 2016, 6, 1481.
Characteristics of the movements of the contents in the TIM-2 system were simulated using an increase of the pH and peristaltic movements of the contents in the system using peristaltic pumps as described in Minekus, M (1998. Development and validation of a dynamic model of the gastrointestinal tract. PhD thesis, Delft University of Technology, The Netherlands).
SCFA analysis was performed at Brightlabs B.V., Venlo, The Netherlands), according to (Sáyago-Ayerdi SG, et al. Food Research International, E-pub date 13 Dec. 2017; Sayago Ayerdi et al Food Research International 118 (2019) 89-95).
Pooled fecal microbiota samples from 11 healthy lean subjects not suffering from any metabolic disease was used to inoculate the TIM-2 in vitro fermentation model.
The fecal microbiota was freshly sampled in and stored directly (within 2 h) on ice and under anaerobic conditions. Next, in an anaerobic cabinet, samples were diluted 1:1 with dialysate, and pooled at approximately equal weight, after which glycerol was added (to a final concentration of 12-13 w/w) and aliquots (30 ml/tube) were frozen in liquid nitrogen and stored at -80 ℃. […]
Samples (1 mL) were taken for SCFA analysis after 1, 2, 4, 6, 8 and 24 h after test product insertion; cumulative absolute amounts of SCFA were determined. […] The acids were detected using suppressed conductivity detection. […]

[3] = addition to infant formula; cited from earlier work
[4] = administered in the distal part of the colon
[5] = TIM-2, microbiota of lean subjects (18.5 kg/m^2 ≤ BMI < 25 kg/m^2), 8-24 h, represents distal colon, single shot 7.5 g 2′-FL (± 7.5 g RS)

CC(=O)[O-].[Na+] [sodium acetate]
circulating plasma concentrations of peptide YY (PYY) [1, 4]: significantly increased
fat oxidation [1, 4]: significantly increased
energy expenditure or substrate oxidation ([1]; administered in the proximal colon): no effect

2′-Fucosyllactose [2′-FL w/o RS]
SCFA levels and in particular acetate levels in the distal colon (in words) ([2]; TIM-2, lean subjects' microbiota): increased
Acetate produced between 8 and 24 hours after insertion of the test product [2, 5]: 12 mmol
SCFA produced between 8 and 24 hours after insertion of the test product [2, 5]: 21 mmol
safety and tolerance [3]: safe and well-tolerated
